Data: patent US20130072459A1, “PHARMACEUTICAL COMPOSITION FOR THE PREVENTION OR THE TREATMENT OF NON-ALCOHOLIC FATTY LIVER DISEASE AND THE METHOD FOR PREVENTION OR TREATMENT OF NON-ALCOHOLIC FATTY LIVER DISEASE USING THE SAME” (priority 2010, published 2013)

Columns and labels:
TGF-β1 = TGF-β1 mRNA expression in liver, CCl4-induced acute hepatic damage mouse model; type: in vivo, C57BL/6 mice; conditions: for TGF-β1 expression inhibition rate (% CCl4 control group) / TGF-β1 expression (normalized by actin): 3 days; for TGF-β1 expression (normalized by actin): CCl4 0.1 ml/kg i.p.; for maximum decrement in TGF-β1 mRNA expression of the liver relative to the CCl4 control group: maximum over the doses tested; for expression of TGF-β1 mRNA of the liver, result in words: vs CCl4 group
Procedure: In order to investigate inhibitory effects of compounds of the present invention on expression of TGF-β1 which is known to play a crucial role in a fibrosis process of hepatocytes in a CCl4-induced acute hepatic damage mouse model, the following experiment was carried out. 7-week old male C57BL/6 mice were stabilized and divided into 9 groups (n=7) according to the body weight, followed by intraperitoneal administration of CCl4 (0.1 ml/kg). The normal control group was administered an olive oil. The control group was orally administered a vehicle solution (0.5% MC) once a day at a dose of 10 ml/kg, at intervals of 24 hours for 3 days. The remaining groups were orally administered once a day tartrate of Compound 1 at doses of 30, 100 and 300 mg/kg, sitagliptin phosphate (prepared according to the method described in WO2004/085378 or WO2005/003135) at doses of 100 and 300 mg/kg, and vildagliptin (Trademax, China) at doses of 100 and 300 mg/kg, respectively, according to the designated groups. 1 hour after the final oral administration, animals were dissected and the excised liver was subjected to evaluation of TGF-β1 mRNA expression. The liver tissue stored in liquid nitrogen was homogenized in a TRIZOL solution and then the total RNAs were extracted. The isolated RNAs were diluted to a concentration of 1 μg/μL in 0.1(v/v) % DEPC (diethyl pyrocarbonate), and then the RNA mixture [2 μg/μL each RNA+2 μL of 0.5 μg/μL oligo d(T)15+up to 15 μL of 0.1% DEPC water] was incubated using a PCR apparatus at 72° C. for 5 minutes, followed by quenching on ice. The mixture [1 μL of PCR nucleotide mix+5 μL of 5×MMLV RT bf.(Promega, M531A)+1 μL of […] M-MLV reverse] was prepared, and then subjected to elongation at 42° C. for 60 minutes, denaturation at 95° C. for 5 minutes and quenching at 8° C. to synthesize cDNAs which were stored at −20° C. until subsequent use. In order to carry out RT-PCR, the mixture [1 μL of 20 pmol each Primer+9.5 μL of Nuclease-free water] was prepared and then 2 μL of each cDNA was placed in sterile PCR tubes to which 12.5 μL of remix Taq™ (RR003A, TaKaRa) was then added, followed by mixing. PCR was carried out under the following conditions (Table 4), using Thermal Cycler (PTC-200, MJ Research). PCT products were electrophoresed and analyzed using an Image Analyzer (Vilber Lourmat). Using β-actin expression, the expression of a target gene TGF-β1 was subjected to normalization (FIG. 11).

ob/ob mice = assay: Plasma alanine aminotransferase in obesity animal model ob/ob mice; type: in vivo; conditions: 4 weeks; for plasma alanine aminotransferase, result in words: ob/ob mice
Procedure: 5-week old male C57BL/6 mice (normal mouse group) and ob/ob mice (obesity mouse group) were stabilized and then divided into 6 groups according to the body weight and blood glucose level, followed by feeding with a standard diet and a drug-mixed diet. […] Therefore, in order to supply 10, 100 and 300 mg/kg which are daily target doses of tartrate of Compound 1, diets were formulated by mixing a standard diet with 0.01% by weight, 0.1% by weight and 0.3% by weight of tartrate of Compound 1 and 0.3% by weight of sitagliptin phosphate, respectively. 4 weeks after a supply of diets, animals were dissected and sera were separated. Plasma alanine aminotransferase levels were measured using a blood analyzer (Table 6).

[1] = tested on: high fat diet-induced simple steatosis; assay: Non-alcoholic fatty liver-preventing effects on high fat diet-induced simple steatosis in mice (oral, 28 days); type: in vivo, C57BL/6 mice; conditions: for Triglyceride increase inhibition (%) relative to high fat diet-fed group / Triglyceride increment (%) relative to standard diet-fed group: 28 days, high fat diet; for lipid droplets in liver tissue sample (histological evaluation), result in words: HE staining, FIG. 8; for maximum decrement of the hepatic triglyceride content relative to the high fat diet-fed group: maximum over the doses tested
Procedure: 7-week old male C57BL/6 mice were stabilized and then divided into 9 groups (n=9) according to the body weight and blood glucose level. A standard diet-fed group and a high fat diet-fed group were orally administered a vehicle solution (0.5% MC (methylene cellulose)) of each diet once a day at a dose of 10 ml/kg, and the remaining groups were orally given once a day for 28 days a high fat diet in conjunction with tartrate of Compound 1 at doses of 30, 100 and 300 mg/kg, sitagliptin phosphate at doses of 100 and 300 mg/kg, and vildagliptin at doses of 100 mg/kg and 300 mg/kg, respectively, according to the designated groups. 24 hours after the final oral administration, animals were dissected and the excised liver was homogenized in a 5(v/v) % Triton-X solution to which a triglyceride working reagent was then added, followed by measurement of an absorbance at 540 nm to determine the content of triglyceride (Table 2). In addition, a portion of the excised liver was fixed in a 10(v/v) % formalin solution and then a tissue sample was prepared, followed by hematoxylin & eosin(HE) staining and photographing (FIG. 8).

[2] = standard diet with 0.3% drug (target 300 mg/kg/day)
[3] = standard diet with 0.01% drug (target 10 mg/kg/day)
[4] = standard diet with 0.1% drug (target 100 mg/kg/day)

Row | SMILES | TGF-β1 expression inhibition rate (% CCl4 control group) (TGF-β1; 100 mg/kg oral once a day) [%] | TGF-β1 expression (normalized by actin) (TGF-β1; 100 mg/kg oral once a day) | TGF-β1 expression inhibition rate (% CCl4 control group) (TGF-β1; 300 mg/kg oral once a day) [%] | TGF-β1 expression (normalized by actin) (TGF-β1; 300 mg/kg oral once a day) | maximum decrement in TGF-β1 mRNA expression of the liver relative to the CCl4 control group (TGF-β1) [%] | expression of TGF-β1 mRNA of the liver, result in words (TGF-β1) | plasma alanine aminotransferase, result in words (ob/ob mice) | ALT increase inhibition (%) relative to ob/ob mouse control group (ob/ob mice; [2]) [%] | ALT increment (%) relative to normal mouse group (ob/ob mice; [2]) [%] | Triglyceride increase inhibition (%) relative to high fat diet-fed group ([1]; 100 mg/kg oral once a day) [%] | Triglyceride increment (%) relative to standard diet-fed group ([1]; 100 mg/kg oral once a day) [%] | Triglyceride increase inhibition (%) relative to high fat diet-fed group ([1]; 300 mg/kg oral once a day) [%] | Triglyceride increment (%) relative to standard diet-fed group ([1]; 300 mg/kg oral once a day) [%] | lipid droplets in liver tissue sample (histological evaluation), result in words [1] | maximum decrement of the hepatic triglyceride content relative to the high fat diet-fed group [1] [%] | further results
1 | N[C@@H](CC(=O)N1CCn2c(nnc2C(F)(F)F)C1)Cc1cc(F)c(F)cc1F [sitagliptin phosphate, sitagliptin] | 41 | 1.13 ± 0.19 | −17 | 1.26 ± 0.13 | 41 | decreased expression | reduction | 15 | 869 | 61 | 21 | 15 | 45 | reduction of lipid droplets | 61 | –
2 | CC(C)(C)OC[C@@H]1C(=O)NCCN1C(=O)C[C@H](N)Cc1cc(F)c(F)cc1F [tartrate of Compound 1, (R)-4-[(R)-3-amino-4-(2,4,5-trifluorophenyl)-butanoyl]-3-(t-butoxymethyl)piperazin-2-one] | 128 | 0.93 ± 0.10 | 100 | 1.00 ± 0.13 | 135 | normalization | reduction | 27 | 757 | 12 | 47 | 81 | 11 | reduction of lipid droplets | 81 | TGF-β1 expression inhibition rate (% CCl4 control group) (TGF-β1; 30 mg/kg oral once a day): 135%; TGF-β1 expression (normalized by actin) (TGF-β1; 30 mg/kg oral once a day): 0.92 ± 0.13; ALT increase inhibition (%) relative to ob/ob mouse control group (ob/ob mice; [3]): 43%; ALT increment (%) relative to normal mouse group (ob/ob mice; [3]): 610%; ALT increase inhibition (%) relative to ob/ob mouse control group (ob/ob mice; [4]): 39%; ALT increment (%) relative to normal mouse group (ob/ob mice; [4]): 653%; Triglyceride increase inhibition (%) relative to high fat diet-fed group ([1]; 30 mg/kg oral once a day): 34%; Triglyceride increment (%) relative to standard diet-fed group ([1]; 30 mg/kg oral once a day): 35%
